Measurements: patent US6344474B1, “Use of central cannabinoid receptor antagonists for regulating appetence” (Sanofi-Synthelabo, priority 1997, dated 2002)

How the values were obtained:
[1] = system: Male Sprague-Dawley rats; test: Effect of SR 141716 A on the intake of a sucrose solution in rats; type: in vivo, rat; conditions: for Consumption of sucrose solution in g, 1 hour / Consumption of sucrose solution in g, 2 hours / Consumption of sucrose solution in g, 3 hours / Consumption of sucrose solution in g, 4 hours: 5% sucrose solution; for Consumption of sucrose solution in g, 1 hour: T0+1 hour; for Consumption of sucrose solution in g, 2 hours: T0+2 hours; for Consumption of sucrose solution in g, 3 hours: T0+3 hours; for Consumption of sucrose solution in g, 4 hours: T0+4 hours
Experimental: TEST No. 1: Effect of SR 141716 A on the intake of a sucrose solution in rats
The experiment is performed according to W. C. Lynch et al., Physiol. Behav., 1993, 54, 877-880.
Male Sprague-Dawley rats weighing 190 to 210 g are under a normal light cycle (from 7 am to 7 pm) and receive water and food ad libitum.
For 6 days, between 11 am and 3 pm, the food and the water bottles are withdrawn and the rats are given a 5% sucrose solution to drink.
Rats drinking less than 3 g of sucrose solution are eliminated.
On the seventh day the test is carried out according to the following procedure:
9 am: withdrawal of food,
10 am: oral administration of SR 141716 A,
11 am=T0: introduction of bottles containing a weighed sucrose solution , T0+1 hour, T0+2 hours, T0+3 hours, T0+4 hours: measurement of the sucrose consumption by weighing of the bottles.

[2] = system: Male C 57 BL 6 mice; test: Effect of SR 141716 A on the consumption of an alcohol solution in mice; type: in vivo, mouse; conditions: 6 hours; for Amount of alcohol consumed in g on D4: 10% alcohol solution
Experimental: TEST No. 2: Effect of SR 141716 A on the consumption of an alcohol solution in mice
Male C 57 BL 6 mice (Iffa-Credo) are isolated on the day of their arrival in an animal housing under a reverse cycle (night from 10 am to 10 pm) with 2 bottles filled with water. After 1 week, one of the bottles of water is replaced with a bottle filled with a 10% alcohol solution for 6 hours of the test. Each day, 30 minutes before the bottle of alcohol is introduced, the mice are treated subcutaneously with SR 141716 A. The amounts of alcohol and water consumed are measured after 6 hours. The test is repeated for 4 days.

Cc1c(C(=O)NN2CCCCC2)nn(-c2ccc(Cl)cc2Cl)c1-c1ccc(Cl)cc1 [SR 141716 A, N-piperidino-5-(4-chlorophenyl)-1-(2,4-dichlorophenyl)-4-methylpyrazole-3-carboxamide]
Consumption of sucrose solution in g, 1 hour ([1]; 0.3 mg/kg po): 5.18 g
Consumption of sucrose solution in g, 2 hours ([1]; 0.3 mg/kg po): 9.18 g
Consumption of sucrose solution in g, 3 hours ([1]; 0.3 mg/kg po): 12.49 g
Consumption of sucrose solution in g, 4 hours ([1]; 0.3 mg/kg po): 16.10 g
Consumption of sucrose solution in g, 1 hour ([1]; 1 mg/kg po): 3.27 ± g
Consumption of sucrose solution in g, 2 hours ([1]; 1 mg/kg po): 3.61 ± g
Consumption of sucrose solution in g, 3 hours ([1]; 1 mg/kg po): 5.65 ± g
Consumption of sucrose solution in g, 4 hours ([1]; 1 mg/kg po): 7.43 ± g
Consumption of sucrose solution in g, 1 hour ([1]; 3 mg/kg po): 2.95 ± g
Consumption of sucrose solution in g, 2 hours ([1]; 3 mg/kg po): 5.41 ± g
Consumption of sucrose solution in g, 3 hours ([1]; 3 mg/kg po): 6.96 ± g
Consumption of sucrose solution in g, 4 hours ([1]; 3 mg/kg po): 8.58 ± g
Dose at or above which consumption of aqueous sugar solution is very considerably reduced ([1]; oral administration): ≥ 0.3 mg/kg
Amount of alcohol consumed in g on D4 ([2]; 0.1 mg/kg sc): 1.4 ± 0.2 g
Amount of water consumed ([2]; 0.1 mg/kg sc): 1.1 ± 0.3 g
Amount of alcohol consumed in g on D4 ([2]; 0.3 mg/kg sc): 1.3 ± 0.2 g
Amount of water consumed ([2]; 0.3 mg/kg sc): 1.1 ± 0.3 g
Amount of alcohol consumed in g on D4 ([2]; 1 mg/kg sc): 1.1 ± 0.2 g
Amount of water consumed ([2]; 1 mg/kg sc): 1.3 ± 0.1 g
Amount of alcohol consumed in g on D4 ([2]; 3 mg/kg sc, 3 mg/kg): 1.0 ± 0.2 g
Amount of water consumed ([2]; 3 mg/kg sc, 3 mg/kg): 1.6 ± 0.3 g
